Results published in patent US8486961B2, “Pyrrolo[4,3,2-de]quinolin-8-amine compounds and methods of their preparation and use” (Wyeth LLC, priority 2008, dated 2013).
Read-outs that look alike come from different tables or passages of the source.

Columns and labels:
mTOR = target: T1, mTOR (Homo sapiens, UniProt P42345); assay: mTOR kinase assay (DELFIA, purified enzyme); format: biochemical; conditions: purified FLAG-TOR, 100 μM ATP, His6-S6K substrate; * = compounds 4 and 5 screened as a mixture
T1 construct: FLAG
Procedure: The routine human TOR assays with purified enzyme were performed in 96-well plates by DELFIA format as follows. Enzymes were first diluted in kinase assay buffer (10 mM Hepes (pH 7.4), 50 mM NaCl, 50 mM β-glycerophosphate, 10 mM MnCl2, 0.5 mM DTT, 0.25 μM microcystin LR, and 100 μg/mL BSA). To each well, 12 μL of the diluted enzyme were mixed briefly with 0.5 μL test inhibitor or control vehicle dimethylsulfoxide (DMSO). The kinase reaction was initiated by adding 12.5 μL kinase assay buffer containing ATP and His6-S6K to give a final reaction volume of 25 μL containing 800 ng/mL FLAG-TOR, 100 μM ATP and 1.25 μM His6-S6K. The reaction plate was incubated for 2 hours (linear at 1-6 hours) at room temperature with gentle shaking and then terminated by adding 25 μL Stop buffer (20 mM Hepes (pH 7.4), 20 mM EDTA, 20 mM EGTA). The DELFIA detection of the phosphorylated (Thr-389) His6-S6K was performed at room temperature using a monoclonal anti-P(T389)-p70S6K antibody (1A5, Cell Signaling) labeled with Europium-N1-ITC (Eu) (10.4 Eu per antibody, PerkinElmer). The DELFIA Assay buffer and Enhancement solution were purchased from PerkinElmer. 45 μL of the terminated kinase reaction mixture was transferred to a MaxiSorp plate (Nunc) containing 55 μL PBS. The His6-S6K was allowed to attach for 2 hours after which the wells were aspirated and washed once with PBS. 100 μL of DELFIA Assay buffer with 40 ng/mL Eu-P(T389)—S6K antibody was added. The antibody binding was continued for 1 hour with gentle agitation. The wells were then aspirated and washed 4 times with PBS containing 0.05% Tween-20 (PBST). 100 μL of DELFIA Enhancement solution was added to each well and the plates were read in a PerkinElmer Victor model plate reader. Data obtained were used to calculate enzymatic activity and enzyme inhibition by potential inhibitors. mTOR IC50 data (reported in μM) is provided in Table 1.

LNCap cells = assay: In vitro cell growth assay (MTS), LNCap; format: cell-based, human
Procedure: (§1) Cells of human tumor lines LNCap and MDA468 were plated in 96-well culture plates at approximately 3000 cells per well. One day following plating, various doses of mTOR inhibitors were added to cells. Three days after drug treatment, viable cell densities were determined by metabolic conversion (by viable cells) of the dye MTS, a well-established cell proliferation assay. The assays were performed using an assay kit purchased from Promega Corp. (Madison, Wis.) following the protocol supplied with the kit. The MTS assay results were read in a 96-well plate reader by measuring absorbance at 490 nm. The effect of each treatment was calculated as percent of control growth relative to the vehicle-treated cells grown in the same culture plate. The drug concentration that conferred 50% inhibition of growth was determined as IC50 (μM).

MDA468 cells = assay: In vitro cell growth assay (MTS), MDA468; format: cell-based, human
Procedure: as §1

[1] = 72 h, LNCap human tumor line, 3 days treatment, MTS, * = compounds 4 and 5 screened as a mixture
[2] = Homo sapiens, LNCap cell growth
[3] = 72 h, MDA468 human tumor line, 3 days treatment, MTS, * = compounds 4 and 5 screened as a mixture, read-out: MDA 468 IC50

Structure (SMILES)	IC50 (mTOR) [nM]	IC50 (LNCap cells; [1]) [nM]	IC50 (LNCap cells; [2]) [nM]	IC50 (MDA468 cells; [3]) [nM]	IC50 (MDA468 cells; Homo sapiens, Example 8) [nM]
CCCC(=O)Nc1cc(N)c2c3c(cc(C(=O)CCO)nc13)C=N2 [Compound 3, N-(8-amino-4-(3-hydroxypropanoyl)pyrrolo[4,3,2-de]quinolin-6-yl)butyramide]	> 4000	> 12000	–	> 12000	–
CC(C)C(=O)Nc1cc(N)c2c3c(cc(C(=O)CCO)nc13)C=N2 [Compound 6, N-(8-amino-4-(3-hydroxypropanoyl)pyrrolo[4,3,2-de]quinolin-6-yl)isobutyramide]	> 4000	6500	–	1200	–
CCC(=O)Nc1cc(N)c2c3c(cc(C(=O)CCO)nc13)C=N2 [Compound 7, N-(8-amino-4-(3-hydroxypropanoyl)pyrrolo[4,3,2-de]quinolin-6-yl)propionamide]	> 4000	5000	–	400	–
CC(C)CC(=O)Nc1cc(N)c2c3c(cc(C(=O)CCO)nc13)C=N2 [Compound 8, N-(8-amino-4-(3-hydroxypropanoyl)pyrrolo[4,3,2-de]quinolin-6-yl)-3-methylbutanamide]	1500	2900	–	3500	–
CCC(C)C(=O)Nc1cc(N)c2c3c(cc(C(=O)CCO)nc13)C=N2 (stereo not drawn) [Compound 9, N-(8-amino-4-(3-hydroxypropanoyl)pyrrolo[4,3,2-de]quinolin-6-yl)-2-methylbutanamide]	3200	10000	–	7600	–

Second part, led by results:

IC50 (mTOR) [nM]	IC50 (LNCap cells; [1]) [nM]	IC50 (LNCap cells; [2]) [nM]	Structure (SMILES)	IC50 (MDA468 cells; [3]) [nM]	IC50 (MDA468 cells; Homo sapiens, Example 8) [nM]
1.5	48	20 to 300	CCC(=O)Nc1cc(N)c2c3c(cc(C(=O)/C=C/OC)nc13)C=N2 [Compound 1, (E)-N-(8-amino-4-(3-methoxyacryloyl)pyrrolo[4,3,2-de]quinolin-6-yl)-propionamide]	85	50 to 800
0.8	22	20 to 300	CO/C=C/C(=O)c1cc2c3c(c(N)cc(NC(=O)C(C)C)c3n1)N=C2 [Compound 2, (E)-N-(8-amino-4-(3-methoxyacryloyl)pyrrolo[4,3,2-de]quinolin-6-yl)isobutyramide]	58	50 to 800
1.8	230	20 to 300	CO/C=C/C(=O)c1cc2c3c(c(N)cc(NC(=O)CC(C)C)c3n1)N=C2 [Compound 4, (E)-N-(8-amino-4-(3-methoxyacryloyl)pyrrolo[4,3,2-de]quinolin-6-yl)-3-methylbutanamide]	700	50 to 800
1.8	230	–	CCC(C)C(=O)Nc1cc(N)c2c3c(cc(C(=O)/C=C/OC)nc13)C=N2 (stereo not drawn) [Compound 5, (E)-N-(8-amino-4-(3-methoxyacryloyl)pyrrolo[4,3,2-de]quinolin-6-yl)-2-methylbutanamide]	700	–
